Measured values taken from US7521535B2, “Anti-microbial defensin-related peptides and methods of use” (priority 2006, dated 2009).
Entries after “also recorded” stand apart in the source; their conditions may differ. Positions of bridges follow the written chain, without caps; N, C: chain ends. Chains are numbered I, II in the order given. No end group written: not given here.

B1: HD-5 (peptide, UniProt Q01523 20-94, looked up)
Defensin alpha 5: ESLQERADEATTQKQSGEDNQDLAISFAGNGLSALRTSGSQARATCYCRTGRCATRESLSGVCEISGRLYRLCCR
modifications: Defensin-5

Experiments:
[1] = test system: E. coli O157:H7 ATCC 700728; assay: kinetics of bacterial killing, colony counting assay; format: cell-based; details: 4 μM peptide; for killing of E. coli: no NaCl, within 2 h
Description: (§1) FIG. 4. Kinetics of killing of E. coli O157:H7 in the absence (A) and presence (B) of 100 mM NaCl by rattusin, cryptdin-4 and HD-5. E. coli O157:H7 ATCC 700728 was incubated with 4 μM rattusin, cryptdin-4, HD-5, or an equal volume of 0.01% acetic acid (no peptide) in duplicate in 25 mM sodium phosphate buffer, pH 7.4, 1% TSB with and without 100 mM NaCl for 10, 30, 60, 120 and 240 min. Surviving bacteria were plated and counted. Data shown are means ± SEM of two independent experiments.
(§2) To study the kinetics of bacterial killing, a standard colony counting assay was used as described (26). Rattusin and cryptin-4 were incubated with 90 μl of 5×10^5 CFU/ml Staphylococcus aureus ATCC 25923 at the concentration of 2 μM each or with E. coli O157:H7 at the concentration of 4 μM each in 25 mM sodium phosphate buffer, pH 7.4, with and without 100 mM NaCl. The reaction was incubated at 37° C. for 10, 30, 60, 120 and 240 min and diluted rapidly with ice-cold PBS and plated immediately. Plates were incubated at 37° C. for 14-18 hours and viable bacteria were counted.

E. coli O157:H7 [2] = assay: effect of Mg2+ on antibacterial activity; format: cell-based; details: 4 μM peptide, 0, 1, 2 and 5 mM MgCl2, 4 h
Description: (§3) FIG. 7. Effect of Mg^2+ on the antibacterial activity of rattusin and cryptdin-4 against S. aureus (A) and E. coli O157:H7 (B). S. aureus or E. coli were incubated with rattusin, cryptdin-4, or an equal volume of 0.01% acetic acid (no peptide) in 25 mM sodium phosphate buffer, containing 1% TSB with 0, 1, 2 and 5 mM MgCl2, pH 7.4, for 4 h. Surviving bacteria were plated and counted. Both peptides were used at identical concentrations for each bacterial strain (2 and 4 μM against S. aureus and E. coli, respectively). Data shown are means ± SEM of 2-3 independent experiments.
(§4) The effect of Mg^2+ on the antibacterial activity was studied by incubating rattusin and cryptdin-4 for 4 h with 90 μl of 5×10^5 CFU/ml Staphylococcus aureus at a concentration of 2 μM each or with E. coli O157:H7 at a concentration of 4 μM each in 1% TSB, 25 mM sodium phosphate buffer, containing 0, 1, 2 and 5 mM of MgCl2, pH 7.4.

S. aureus ATCC 25923 = assay: kinetics of bacterial killing, colony counting assay; format: cell-based, Staphylococcus aureus; details: 2 μM peptide
Description: as §1, with “FIG. 5.” for “FIG. 4.”, “of S. aureus” for “of E. coli O157:H7”, “HD-5. S. aureus” for “HD-5. E. coli O157:H7”, “ATCC 25923” for “ATCC 700728”, “with 2” for “with 4”
as §2

[3] = test system: representative Gram-positive and Gram-negative bacteria; assay: modified broth microdilution assay, summary over strains; format: cell-based; details: 100 mM NaCl versus no NaCl
Description: All bacterial strains were purchased from either MicroBiologics (St. Cloud, Minn.) or ATCC (Manassas, Va.). Bacteria were grown in trypticase soy broth (TSB) overnight and subcultured in the same broth for 3-4 h at 37° C. in a shaking incubator to the mid log phase. To study the antibacterial spectrum, a modified broth microdilution assay was used as described (26). Briefly, the mid log phase bacteria were washed with 25 mM sodium phosphate buffer, pH 7.4, and suspended in 5% TSB in 25 mM sodium phosphate, pH 7.4, to 5×10^5 CFU/ml with and without 100 mM NaCl. Bacteria (90 μl) were then dispensed in a 96-well plate, followed by addition of peptides (10 μl) serially diluted in 0.01% acetic acid. After overnight incubation at 37° C., the minimum inhibitory concentration (MIC) of each peptide was determined as the lowest concentration that gave no visible bacterial growth.
Refolded rattusin was then used to study its antibacterial activity against representative Gram-positive and Gram-negative bacteria by a modified broth microdilution assay with and without 100 mM NaCl.

S. aureus [4] = assay: effect of Mg2+ on antibacterial activity; format: cell-based, Staphylococcus aureus; details: 2 μM peptide, 0, 1, 2 and 5 mM MgCl2, 4 h
Description: as §3, §4

Caco-2 cells = assay: cytotoxicity assay, alamarBlue dye; format: cell-based, human; details: 100 μM peptide, 24 h, DMEM with and without 10% FBS
Description: FIG. 8. Absence of cytotoxicity of rattusin and cryptdin-4 to Caco-2 cells. Cells were incubated with 100 μM of rattusin, cryptdin-4 or fowlicidin-1 for 24 h in DMEM with and without 10% fetal bovine serum for 24 hours. Cell viability was measured with an alamarBlue dye-based method. Data are representative of two independent experiments done in duplicate.
Cytotoxicity against human colon adenocarcinoma (CACO-2) cell line (ATCC, Manassas, Va.) was measured using alamarBlue dye (Biosource, Camarillo, Calif.) as described previously (26, 27). Briefly, CACO-2 cells were seeded into 96 well plate at 5×10^4 in Dulbecco's modified Eagle's medium (DMEM) with 10% FBS and were grown overnight. The next day cells were washed once with DMEM followed by the addition of fresh DMEM with and without 10% FBS and 100 μM of rattusin or cryptdin-4 or fowlicidin-1. […] The plate was read with excitation at 545 nm and emission at 590 nm. The percentage of cell death was calculated as [1−(Fpeptide−Fbackground)/(Facetic acid−Fbackground)]×100, where Fpeptide is the fluorescence of cells exposed to 100 μM peptide, Facetic acid is the fluorescence of cells exposed to 0.01% acetic acid only, and Fbackground is the background fluorescence of 10% alamarBlue dye in cell culture medium without cells.

S. aureus [5] = assay: effect of salinity on antibacterial activity; format: cell-based; details: 2 μM peptide, 4 h, up to 200 mM NaCl
Description: (§5) FIG. 6. Effect of salinity on the antibacterial activity of rattusin against S. aureus (A) and E. coli O157:H7 (B). S. aureus and E. coli were incubated with 2 and 4 μM of rattusin, or an equal volume of 0.01% acetic acid (no peptide) in 25 mM sodium phosphate buffer, pH 7.4, 1% TSB with increasing concentrations of NaCl, for 4 h. Surviving bacteria were plated and counted. Data shown are means ± SEM of two independent experiments.

E. coli O157:H7 [6] = assay: effect of salinity on antibacterial activity; format: cell-based; details: 4 μM peptide, 4 h, up to 200 mM NaCl
Description: as §5

bacteria = assay: preliminary antibacterial studies, reduced versus refolded rattusin; format: cell-based; details: data not shown
Text: Similar to several α- and β-defensins (49-52), the central cysteine-rich motif of rattusin is flanked by long flexible N- and C-terminal tails, which are primarily composed of charged and uncharged polar residues (Table 2). The impact of N- and C-terminal tails and five cysteines of rattusin on its antibacterial, cytotoxic, chemotactic, and immuno-modulatory functions is investigated.

Molecule	killing of E. coli in the presence of 100 mM NaCl [1]	killing of E. coli [1]	activity against E. coli in the presence of MgCl2 (E. coli O157:H7 [2])	killing of S. aureus in the presence of 100 mM NaCl (S. aureus ATCC 25923)	antibacterial activity in the presence of 100 mM NaCl [3]	effect of Mg2+ on activity against S. aureus (S. aureus [4])	cytotoxicity to Caco-2 cells (Caco-2 cells)	antibacterial activity with increasing concentrations of NaCl (S. aureus [5])	antibacterial activity with increasing concentrations of NaCl (E. coli O157:H7 [6])	antibacterial activity in high salt (bacteria)
I: LRVRRTLQCSCRRVCRNTCSCIRLSRSTYAS / II: LRVRRTLQCSCRRVCRNTCSCIRLSRSTYAS (disulfide I:9-II:21, I:11-II:19, I:15-II:15, I:19-II:11, I:21-II:9) [Rattusin]	slightly delayed with a complete killing occurring at 4 h	three logs	largely unaffected	largely unaffected	remained largely unchanged	did not inhibit; also recorded: potentiated	no cytotoxicity	maintained antibacterial activity	maintained antibacterial activity	–
LRVRRTLQCSCRRVCRNTCSCIRLSRSTYAS [reduced peptide, rattusin in the reduced form, without disulfide bonds]	–	–	–	–	–	–	–	–	–	lost significant activities
B1	completely inactivated	three logs	–	significantly inhibited	–	–	–	–	–	–
